From ChEMBL document CHEMBL4804284

Tests used:
Set-up in all cases: scale not given: the % may be the effect or the level left
[1] = target: Myosin light chain kinase 2, skeletal/cardiac muscle (Homo sapiens) (UniProt Q9H1R3); assay: Inhibition of DNA-tagged human MYLK2 assessed as percent of control at 50000 nM by qPCR analysis relative to control
[2] = target: Wee1-like protein kinase 2 (Homo sapiens) (UniProt P0C1S8); assay: Inhibition of DNA-tagged human WEE2 assessed as percent of control at 50000 nM by qPCR analysis relative to control
[3] = target: Proto-oncogene tyrosine-protein kinase Src (Homo sapiens) (UniProt P12931); assay: Inhibition of DNA-tagged human SRC assessed as percent of control at 50000 nM by qPCR analysis relative to control
[4] = target: Serine/threonine-protein kinase RIO1 (Homo sapiens) (UniProt Q9BRS2); assay: Inhibition of DNA-tagged human RIOK1 assessed as percent of control at 50000 nM by qPCR analysis relative to control
Chain of Serine/threonine-protein kinase RIO1 (Homo sapiens) (Q9BRS2 whole entry): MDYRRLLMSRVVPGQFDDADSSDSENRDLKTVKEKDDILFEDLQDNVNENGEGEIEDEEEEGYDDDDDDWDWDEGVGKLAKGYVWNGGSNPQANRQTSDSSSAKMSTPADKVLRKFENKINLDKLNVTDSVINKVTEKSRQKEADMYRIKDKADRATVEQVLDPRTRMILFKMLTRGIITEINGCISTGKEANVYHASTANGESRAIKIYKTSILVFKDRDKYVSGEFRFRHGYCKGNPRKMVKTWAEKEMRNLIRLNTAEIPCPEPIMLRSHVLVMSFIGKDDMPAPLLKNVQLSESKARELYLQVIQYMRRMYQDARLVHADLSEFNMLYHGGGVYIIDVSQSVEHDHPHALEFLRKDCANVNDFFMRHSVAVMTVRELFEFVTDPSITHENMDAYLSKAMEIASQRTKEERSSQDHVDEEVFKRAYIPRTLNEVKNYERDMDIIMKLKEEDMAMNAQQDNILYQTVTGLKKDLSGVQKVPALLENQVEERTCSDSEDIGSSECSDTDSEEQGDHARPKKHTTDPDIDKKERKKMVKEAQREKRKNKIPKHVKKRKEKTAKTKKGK

[5] = target: Dual specificity mitogen-activated protein kinase kinase 5 (Homo sapiens) (UniProt Q13163); assay: Inhibition of DNA-tagged human MEK5 assessed as percent of control at 50000 nM by qPCR analysis relative to control
[6] = system: Mast/stem cell growth factor receptor Kit (Homo sapiens), P10721 [D816H]; assay: Inhibition of DNA-tagged human KIT D816H mutant assessed as percent of control at 50000 nM by qPCR analysis relative to control
[7] = target: Tyrosine-protein kinase Yes (Homo sapiens) (UniProt P07947); assay: Inhibition of DNA-tagged human YES assessed as percent of control at 50000 nM by qPCR analysis relative to control
Chain of Tyrosine-protein kinase Yes (Homo sapiens) (P07947 2-543 limits assumed): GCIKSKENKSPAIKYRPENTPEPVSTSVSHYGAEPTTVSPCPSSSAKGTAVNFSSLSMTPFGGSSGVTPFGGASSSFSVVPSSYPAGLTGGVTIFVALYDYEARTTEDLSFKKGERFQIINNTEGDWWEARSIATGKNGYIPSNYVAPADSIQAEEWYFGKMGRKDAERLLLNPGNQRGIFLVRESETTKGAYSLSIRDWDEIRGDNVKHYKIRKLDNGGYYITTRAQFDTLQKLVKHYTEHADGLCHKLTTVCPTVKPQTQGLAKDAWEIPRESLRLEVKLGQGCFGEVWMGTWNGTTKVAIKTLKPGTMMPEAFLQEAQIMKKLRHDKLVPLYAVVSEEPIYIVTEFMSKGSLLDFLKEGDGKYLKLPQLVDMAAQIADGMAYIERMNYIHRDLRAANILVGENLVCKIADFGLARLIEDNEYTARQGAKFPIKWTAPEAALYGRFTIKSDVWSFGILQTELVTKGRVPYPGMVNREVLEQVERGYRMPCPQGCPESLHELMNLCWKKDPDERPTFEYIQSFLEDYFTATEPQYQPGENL

[8] = target: Leucine-rich repeat serine/threonine-protein kinase 2 (Homo sapiens) (UniProt Q5S007); assay: Inhibition of DNA-tagged human LRRK2 assessed as percent of control at 50000 nM by qPCR analysis relative to control
[9] = system: Mast/stem cell growth factor receptor Kit (Homo sapiens), P10721 [L576P]; assay: Inhibition of DNA-tagged human KIT L576P mutant assessed as percent of control at 50000 nM by qPCR analysis relative to control
[10] = target: Ankyrin repeat and protein kinase domain-containing protein 1 (Homo sapiens) (UniProt Q8NFD2); assay: Inhibition of DNA-tagged human ANKK1 assessed as percent of control at 50000 nM by qPCR analysis relative to control
[11] = target: Ephrin type-A receptor 1 (Homo sapiens) (UniProt P21709); assay: Inhibition of DNA-tagged human EPHA1 assessed as percent of control at 50000 nM by qPCR analysis relative to control
[12] = target: Interleukin-1 receptor-associated kinase 3 (Homo sapiens) (UniProt Q9Y616); assay: Inhibition of DNA-tagged human IRAK3 assessed as percent of control at 50000 nM by qPCR analysis relative to control
Chain of Interleukin-1 receptor-associated kinase 3 (Homo sapiens) (Q9Y616 whole entry): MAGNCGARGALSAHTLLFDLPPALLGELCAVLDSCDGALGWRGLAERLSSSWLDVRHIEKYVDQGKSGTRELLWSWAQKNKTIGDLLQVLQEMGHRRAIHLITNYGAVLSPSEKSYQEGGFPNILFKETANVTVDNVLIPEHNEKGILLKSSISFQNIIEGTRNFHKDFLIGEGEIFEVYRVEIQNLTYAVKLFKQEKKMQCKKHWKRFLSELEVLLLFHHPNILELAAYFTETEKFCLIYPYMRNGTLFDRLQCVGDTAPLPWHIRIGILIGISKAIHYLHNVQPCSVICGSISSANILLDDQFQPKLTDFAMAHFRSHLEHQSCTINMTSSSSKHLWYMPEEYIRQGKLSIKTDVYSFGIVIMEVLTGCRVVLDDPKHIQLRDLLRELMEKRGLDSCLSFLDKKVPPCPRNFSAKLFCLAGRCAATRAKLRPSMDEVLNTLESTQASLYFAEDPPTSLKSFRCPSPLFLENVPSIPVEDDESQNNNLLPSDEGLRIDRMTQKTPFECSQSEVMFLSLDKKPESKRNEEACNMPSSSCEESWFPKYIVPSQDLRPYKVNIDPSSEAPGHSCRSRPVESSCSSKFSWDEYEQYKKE

[13] = target: Cyclin-dependent kinase 9 (Homo sapiens) (UniProt P50750); assay: Inhibition of DNA-tagged human CDK9 assessed as percent of control at 50000 nM by qPCR analysis relative to control
[14] = target: Ribosomal protein S6 kinase alpha-6 (Homo sapiens) (UniProt Q9UK32); assay: Inhibition of DNA-tagged human C-terminal RSK4 kinase domain 2 assessed as percent of control at 50000 nM by qPCR analysis relative to control
Chain of Ribosomal protein S6 kinase alpha-6 (Homo sapiens) (Q9UK32 whole entry, the tested form may be a part): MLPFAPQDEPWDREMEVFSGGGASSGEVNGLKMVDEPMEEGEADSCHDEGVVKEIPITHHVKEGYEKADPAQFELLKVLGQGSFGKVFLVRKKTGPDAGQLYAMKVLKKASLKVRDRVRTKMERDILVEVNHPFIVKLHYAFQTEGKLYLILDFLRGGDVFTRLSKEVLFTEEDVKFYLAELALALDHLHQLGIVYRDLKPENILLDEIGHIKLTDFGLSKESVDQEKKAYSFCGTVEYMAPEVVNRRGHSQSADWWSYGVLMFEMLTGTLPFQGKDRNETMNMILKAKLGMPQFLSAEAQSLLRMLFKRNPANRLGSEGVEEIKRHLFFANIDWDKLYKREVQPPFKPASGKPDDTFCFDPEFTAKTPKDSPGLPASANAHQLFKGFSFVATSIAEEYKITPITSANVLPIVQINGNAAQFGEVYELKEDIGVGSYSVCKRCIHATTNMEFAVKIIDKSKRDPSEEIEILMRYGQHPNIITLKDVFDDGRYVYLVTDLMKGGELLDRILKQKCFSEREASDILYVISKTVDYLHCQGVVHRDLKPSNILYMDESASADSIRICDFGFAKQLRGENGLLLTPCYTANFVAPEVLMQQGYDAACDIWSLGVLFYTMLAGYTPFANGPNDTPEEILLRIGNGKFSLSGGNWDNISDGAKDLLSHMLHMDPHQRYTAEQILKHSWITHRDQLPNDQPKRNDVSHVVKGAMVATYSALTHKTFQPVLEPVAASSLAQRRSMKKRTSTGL

[15] = target: Insulin receptor (Homo sapiens) (UniProt P06213); assay: Inhibition of DNA-tagged human INSR assessed as percent of control at 50000 nM by qPCR analysis relative to control
Chain of Insulin receptor (Homo sapiens) (P06213 28-758 limits assumed): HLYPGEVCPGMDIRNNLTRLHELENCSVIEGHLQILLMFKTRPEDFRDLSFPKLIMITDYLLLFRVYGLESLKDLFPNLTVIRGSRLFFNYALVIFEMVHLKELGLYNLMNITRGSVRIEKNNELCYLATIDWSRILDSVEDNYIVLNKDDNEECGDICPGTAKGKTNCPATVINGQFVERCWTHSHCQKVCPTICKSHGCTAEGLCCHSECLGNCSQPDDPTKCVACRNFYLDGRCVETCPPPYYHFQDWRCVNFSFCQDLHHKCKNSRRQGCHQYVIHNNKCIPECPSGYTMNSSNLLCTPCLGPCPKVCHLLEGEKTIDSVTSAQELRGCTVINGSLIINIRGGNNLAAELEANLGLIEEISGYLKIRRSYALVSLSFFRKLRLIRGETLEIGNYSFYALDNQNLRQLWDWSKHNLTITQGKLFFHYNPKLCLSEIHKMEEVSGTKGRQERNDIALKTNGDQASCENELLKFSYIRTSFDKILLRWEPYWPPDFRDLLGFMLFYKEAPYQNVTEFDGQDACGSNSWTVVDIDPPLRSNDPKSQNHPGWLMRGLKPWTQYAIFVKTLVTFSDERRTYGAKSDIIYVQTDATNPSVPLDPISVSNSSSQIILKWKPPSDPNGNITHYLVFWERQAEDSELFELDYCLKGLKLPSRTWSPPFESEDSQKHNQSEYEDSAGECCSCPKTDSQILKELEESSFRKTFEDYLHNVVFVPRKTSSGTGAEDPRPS
Chain of Insulin receptor (Homo sapiens) (P06213 763-1382 limits assumed): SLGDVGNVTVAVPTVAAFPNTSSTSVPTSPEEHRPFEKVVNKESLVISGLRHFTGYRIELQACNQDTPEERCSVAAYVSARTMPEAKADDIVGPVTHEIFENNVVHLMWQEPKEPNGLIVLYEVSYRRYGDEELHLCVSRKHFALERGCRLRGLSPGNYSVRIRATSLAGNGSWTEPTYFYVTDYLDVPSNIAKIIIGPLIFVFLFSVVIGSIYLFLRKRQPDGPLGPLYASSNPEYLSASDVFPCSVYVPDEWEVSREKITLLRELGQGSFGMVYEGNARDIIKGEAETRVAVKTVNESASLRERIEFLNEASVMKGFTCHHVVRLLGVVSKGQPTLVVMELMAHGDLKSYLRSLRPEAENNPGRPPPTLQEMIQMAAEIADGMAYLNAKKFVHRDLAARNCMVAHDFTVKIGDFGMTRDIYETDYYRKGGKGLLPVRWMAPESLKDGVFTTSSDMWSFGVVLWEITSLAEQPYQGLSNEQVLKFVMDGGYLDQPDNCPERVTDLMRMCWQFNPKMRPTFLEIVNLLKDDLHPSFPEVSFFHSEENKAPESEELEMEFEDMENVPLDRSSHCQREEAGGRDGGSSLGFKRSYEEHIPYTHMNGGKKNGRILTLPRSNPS

[16] = target: Cyclin-dependent kinase 17 (Homo sapiens) (UniProt Q00537); assay: Inhibition of DNA-tagged human PCTK2 assessed as percent of control at 50000 nM by qPCR analysis relative to control
[17] = target: Serine/threonine-protein kinase N2 (Homo sapiens) (UniProt Q16513); assay: Inhibition of DNA-tagged human PKN2 assessed as percent of control at 50000 nM by qPCR analysis relative to control
[18] = target: Serine/threonine-protein kinase SIK3 (Homo sapiens) (UniProt Q9Y2K2); assay: Inhibition of DNA-tagged human QSK assessed as percent of control at 50000 nM by qPCR analysis relative to control
[19] = target: Mitogen-activated protein kinase 15 (Homo sapiens) (UniProt Q8TD08); assay: Inhibition of DNA-tagged human ERK8 assessed as percent of control at 50000 nM by qPCR analysis relative to control
[20] = target: Cyclin-dependent kinase 3 (Homo sapiens) (UniProt Q00526); assay: Inhibition of DNA-tagged human CDK3 assessed as percent of control at 50000 nM by qPCR analysis relative to control
[21] = target: Tyrosine-protein kinase Blk (Homo sapiens) (UniProt P51451); assay: Inhibition of DNA-tagged human BLK assessed as percent of control at 50000 nM by qPCR analysis relative to control
Chain of Tyrosine-protein kinase Blk (Homo sapiens) (P51451 2-505 limits assumed): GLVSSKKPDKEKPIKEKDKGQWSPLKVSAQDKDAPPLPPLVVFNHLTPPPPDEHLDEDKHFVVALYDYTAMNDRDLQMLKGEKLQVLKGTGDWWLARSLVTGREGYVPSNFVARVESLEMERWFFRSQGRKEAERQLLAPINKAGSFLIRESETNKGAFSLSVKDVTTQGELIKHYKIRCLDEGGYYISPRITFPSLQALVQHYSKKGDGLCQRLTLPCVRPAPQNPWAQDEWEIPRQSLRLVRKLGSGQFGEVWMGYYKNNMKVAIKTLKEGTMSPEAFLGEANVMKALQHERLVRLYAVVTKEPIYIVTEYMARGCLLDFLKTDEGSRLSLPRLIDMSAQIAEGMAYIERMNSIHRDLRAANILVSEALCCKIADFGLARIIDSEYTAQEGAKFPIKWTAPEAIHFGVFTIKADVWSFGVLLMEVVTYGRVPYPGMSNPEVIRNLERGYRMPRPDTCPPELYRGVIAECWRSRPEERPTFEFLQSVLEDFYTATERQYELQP

[22] = target: Mitogen-activated protein kinase 14 (Homo sapiens) (UniProt Q16539); assay: Inhibition of DNA-tagged human p38-alpha assessed as percent of control at 50000 nM by qPCR analysis relative to control
[23] = target: Ephrin type-B receptor 6 (Homo sapiens) (UniProt O15197); assay: Inhibition of DNA-tagged human EPHB6 assessed as percent of control at 50000 nM by qPCR analysis relative to control
[24] = target: Serine/threonine-protein kinase MARK1 (Homo sapiens) (UniProt Q9P0L2); assay: Inhibition of DNA-tagged human MARK1 assessed as percent of control at 50000 nM by qPCR analysis relative to control
[25] = target: Ribosomal protein S6 kinase alpha-4 (Homo sapiens) (UniProt O75676); assay: Inhibition of DNA-tagged human N-terminal RPS6KA4 kinase domain assessed as percent of control at 50000 nM by qPCR analysis relative to control
[26] = target: Receptor-interacting serine/threonine-protein kinase 2 (Homo sapiens) (UniProt O43353); assay: Inhibition of DNA-tagged human RIPK2 assessed as percent of control at 50000 nM by qPCR analysis relative to control
[27] = target: LIM domain kinase 2 (Homo sapiens) (UniProt P53671); assay: Inhibition of DNA-tagged human LIMK2 assessed as percent of control at 50000 nM by qPCR analysis relative to control
Chain of LIM domain kinase 2 (Homo sapiens) (P53671 whole entry, looked up, the tested form may be a part): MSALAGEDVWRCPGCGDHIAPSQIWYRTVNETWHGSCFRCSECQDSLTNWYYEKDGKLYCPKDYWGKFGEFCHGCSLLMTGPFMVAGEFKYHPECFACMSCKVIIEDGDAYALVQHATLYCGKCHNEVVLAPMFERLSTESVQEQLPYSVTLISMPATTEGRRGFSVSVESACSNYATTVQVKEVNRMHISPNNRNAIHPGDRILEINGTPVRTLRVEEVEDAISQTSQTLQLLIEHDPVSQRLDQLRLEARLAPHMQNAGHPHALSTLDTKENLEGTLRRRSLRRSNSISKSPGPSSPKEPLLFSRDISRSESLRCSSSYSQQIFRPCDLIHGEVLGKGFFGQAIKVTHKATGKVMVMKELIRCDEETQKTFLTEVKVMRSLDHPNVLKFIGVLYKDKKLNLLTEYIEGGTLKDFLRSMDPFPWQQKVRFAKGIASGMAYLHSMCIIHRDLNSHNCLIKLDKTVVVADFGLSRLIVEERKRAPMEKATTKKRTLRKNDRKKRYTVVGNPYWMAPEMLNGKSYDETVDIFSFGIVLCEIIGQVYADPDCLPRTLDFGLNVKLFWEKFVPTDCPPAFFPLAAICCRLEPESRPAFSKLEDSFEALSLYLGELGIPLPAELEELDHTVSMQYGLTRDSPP

[28] = target: Mitogen-activated protein kinase kinase kinase kinase 2 (Homo sapiens) (UniProt Q12851); assay: Inhibition of DNA-tagged human MAP4K2 assessed as percent of control at 50000 nM by qPCR analysis relative to control
[29] = system: Tyrosine-protein kinase ABL1 (Homo sapiens), P00519 [F317L]; assay: Inhibition of DNA-tagged non-phosphorylated human ABL1 F317L mutant assessed as percent of control at 50000 nM by qPCR analysis relative to control
[30] = target: Serine/threonine-protein kinase TBK1 (Homo sapiens) (UniProt Q9UHD2); assay: Inhibition of DNA-tagged human TBK1 assessed as percent of control at 50000 nM by qPCR analysis relative to control

`CN1C(=O)/C(=C2/C(=O)Nc3ccccc32)c2ccccc21` gave an Activity [1] of 94%, an Activity [2] of 95% and an Activity [3] of 100%. The Activity [4] was 87%, the Activity [5] was 97% and the Activity [6] was 75%. For the same compound, the Activity [7] was 86%, the Activity [8] was 96% and the Activity [9] was 98%. The Activity [10] was 81%, the Activity [11] was 100% and the Activity [12] was 90%. The Activity [13] was 84%, the Activity [14] was 71% and the Activity [15] was 91%. It also gave an Activity [16] of 96%, an Activity [17] of 99% and an Activity [18] of 100%. For the same compound, the Activity [19] was 96%, the Activity [20] was 78% and the Activity [21] was 100%. It also gave an Activity [22] of 100%, an Activity [23] of 89% and an Activity [24] of 92%. The Activity [25] was 82%, the Activity [26] was 100% and the Activity [27] was 100%. The Activity [28] was 92%, the Activity [29] was 100% and the Activity [30] was 50%.
